US9387216B2, “Biomarkers for treatment of neoplastic disorders using androgen-targeted therapies” (Tokai Pharmaceuticals, Inc., priority 2013, dated 2016)
Read-outs that look alike come from different tables or passages of the source.

Key:
[1] = tested on: AR nuclear translocation; assay: AR nuclear translocation by immunocytochemistry / immunofluorescence; type: cell-based
[2] = cited from earlier work
[3] = tested on: AR activity; assay: AR luciferase assay; type: cell-based
[4] = tested on: AR and prostate-specific antigen (PSA) protein expression; assay: AR and PSA protein expression (western blot) in LNCaP and Enzalutamide resistant cells; type: cell-based
[5] = target: T1, CYP17 lyase (Homo sapiens, UniProt P05093); conditions: steroidogenic pathway; cited from earlier work
T1 sequence (P05093 1-508): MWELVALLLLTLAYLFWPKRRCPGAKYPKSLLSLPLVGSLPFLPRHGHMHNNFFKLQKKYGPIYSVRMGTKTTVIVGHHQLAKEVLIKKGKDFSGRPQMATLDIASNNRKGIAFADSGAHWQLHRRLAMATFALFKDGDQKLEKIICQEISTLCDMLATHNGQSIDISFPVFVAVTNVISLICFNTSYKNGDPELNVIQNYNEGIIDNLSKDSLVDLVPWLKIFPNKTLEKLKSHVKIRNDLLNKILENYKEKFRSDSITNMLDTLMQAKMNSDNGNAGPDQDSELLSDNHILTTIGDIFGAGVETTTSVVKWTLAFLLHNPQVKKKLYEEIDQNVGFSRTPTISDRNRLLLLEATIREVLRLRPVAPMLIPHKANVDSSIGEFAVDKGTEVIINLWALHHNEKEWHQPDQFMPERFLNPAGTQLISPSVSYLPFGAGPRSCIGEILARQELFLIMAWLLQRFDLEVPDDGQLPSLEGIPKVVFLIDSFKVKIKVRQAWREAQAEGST

[6] = tested on: PSA levels; assay: PSA response of CRPC patients by AR C-terminal status; type: in vivo, human; conditions: for maximal reductions in PSA levels: patients with AR C-terminal loss
Method: A group of six patients naive to previous CRPC therapy was analyzed with respect to AR status. Four of the six patients were identified as having AR receptors with a C-terminal loss as determined by the evaluation of C-terminal androgen receptor expression in relation to N-terminal androgen receptor expression. All four of the patients having this AR variant had maximal reductions in PSA levels of at least 50%.

[7] = tested on: AR-dependent gene expression; assay: AR-dependent gene expression in cells with wild-type AR and AR point mutations; type: cell-based
Description: These cells also express AR receptors with F876L mutation.

[8] = target: T2, full-length AR and AR-V7 (Homo sapiens, UniProt P10275, H875Y); type: cell-based
T2 construct: CWR22rv1 cell line which constitutively expresses both AR and AR-V7; endogenous in cells; host or cells: CWR22rv1
T2 sequence (P10275 1-920 H875Y): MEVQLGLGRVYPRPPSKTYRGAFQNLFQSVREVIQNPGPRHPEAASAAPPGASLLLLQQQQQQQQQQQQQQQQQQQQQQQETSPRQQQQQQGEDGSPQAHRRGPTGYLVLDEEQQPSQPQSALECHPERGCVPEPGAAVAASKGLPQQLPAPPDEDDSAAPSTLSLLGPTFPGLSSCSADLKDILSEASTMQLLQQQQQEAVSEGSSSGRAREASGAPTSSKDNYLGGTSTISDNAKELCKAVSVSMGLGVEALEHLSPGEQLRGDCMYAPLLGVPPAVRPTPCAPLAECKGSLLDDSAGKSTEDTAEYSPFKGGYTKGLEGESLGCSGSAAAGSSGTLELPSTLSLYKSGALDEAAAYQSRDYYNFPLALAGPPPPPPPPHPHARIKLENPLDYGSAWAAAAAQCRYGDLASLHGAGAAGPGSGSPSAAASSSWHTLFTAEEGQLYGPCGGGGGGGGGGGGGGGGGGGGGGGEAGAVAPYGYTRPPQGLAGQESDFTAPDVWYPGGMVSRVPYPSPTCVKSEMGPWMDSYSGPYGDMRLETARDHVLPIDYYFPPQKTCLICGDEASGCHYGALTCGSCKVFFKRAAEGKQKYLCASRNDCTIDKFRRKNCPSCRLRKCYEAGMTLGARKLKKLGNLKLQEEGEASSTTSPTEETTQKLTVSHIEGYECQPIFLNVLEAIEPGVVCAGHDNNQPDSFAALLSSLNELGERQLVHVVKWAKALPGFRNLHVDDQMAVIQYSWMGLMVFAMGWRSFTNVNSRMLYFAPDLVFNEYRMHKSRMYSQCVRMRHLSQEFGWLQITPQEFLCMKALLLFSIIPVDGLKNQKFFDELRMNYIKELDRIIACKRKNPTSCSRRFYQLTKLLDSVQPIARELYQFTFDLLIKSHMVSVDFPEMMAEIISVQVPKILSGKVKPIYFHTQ
Method: An experiment to detect expression of full-length AR and AR-V7 variant proteins was conducted in a CWR22rv1 cell line which constitutively expresses both AR and AR-V7. […] See also FIG. 4.

[9] = tested on: LuCaP136 castration resistant xenograft tumors which express AR-V7; assay: Xenograft model of CRPC in mice (LuCaP136); type: in vivo
Method: Galeterone was tested in a xenograft model of CRPC in mice. […] AR-V7 was detected in LuCaP136 castration resistant xenograft tumors using RT-PCR.

[10] = tested on: CWR22rv1 cell line; assay: Cell proliferation in CWR22rv1 cell line; type: cell-based
[11] = tested on: LNCaP cells, CRPC cells, Enzalutamide resistant cell lines 49F and 49C; assay: Crystal violet and MTT proliferation/viability assays in LNCaP, CRPC and Enzalutamide resistant (49C, 49F) cells; type: cell-based
[12] = patients expressing AR-V7 mRNA in circulating tumor cells
[13] = enzalutamide-responsive CPRC cell line

With `C[C@]1(O)CC[C@H]2[C@@H]3CCC4=CC(=O)CCC4=C3C=C[C@@]21C` [Compound R1881, reference compound] the “AR translocation to the nucleus” value [1] was “caused robust AR translocation to the nucleus”.

For `CNC(=O)c1ccc(N2C(=S)N(c3ccc(C#N)c(C(F)(F)F)c3)C(=O)C2(C)C)cc1F` [Enzalutamide, reference compound], the “patients for which PSA levels dropped by 50%” value ([2]; AR-V7 negative patients) is listed as 53%, the time to progression ([2]; AR-V7 negative patients) is listed as 6.1 months and the PSA decline [2, 12] is listed as “no PSA decline”. The time to progression [2, 12] was 2.1 months, the “AR activity (luciferase)” value [3, 13] was “reduced AR activity” and the “AR and PSA protein expression levels” value ([4]; LNCaP cells) was “reduced AR and PSA protein expression levels”.

For `C[C@]12CC[C@H](O)CC1=CC[C@@H]1[C@@H]2CC[C@]2(C)C(n3cnc4ccccc43)=CC[C@@H]12` [Galeterone, 3-β-Hydroxyl 17-(1H-benzimidazol-1-yl)androsta-5,16-diene], the “inhibition of CYP17 lyase” value [5] is given as “potent inhibitor”, the “AR nuclear translocation (immunofluorescence, FIG. 15B)” value ([1]; cytoplasmic vs nuclear green staining vs. control) is given as “reduces AR nuclear translocation” and the “maximal reductions in PSA levels” value ([6]; 12 weeks at 2550 mg daily) is given as “at least 50%”. For the same compound, the “maximal reductions in PSA levels” value ([6]; 12 weeks at 2550 mg daily, listed as galeterone) was greater than 50%, the “patients with maximal PSA response” value ([6]; patients with C-terminal AR loss) was 4/4 and the “reduction in PSA” value ([6]; two patients without loss of the AR C-terminal domain, 12 weeks at 2550 mg daily) was “did not respond as strongly”. The “AR activity (luciferase)” value ([3]; Enzalutamide resistant cell lines 49C and 49F) was “reduced AR activity in all three cell lines”, the “AR activity (luciferase)” value [3, 13] was “reduced AR activity in all three cell lines” and the “AR activity (summary)” value ([3]; summary of the data) was “strongly inhibits AR activity”. For the same compound, the AR-dependent gene expression [7] was “reduces AR-dependent gene expression”, the “abiraterone and enzalutamide resistance due to AR splice variants” value [8] was “successfully overcomes abiraterone and enzalutamide resistance due to AR splice variants” and the “response of castration resistant tumors which express AR-V7” value [9] was “respond”. The cell proliferation [10] was “reduces cell proliferation”, the anti-proliferative effects ([11]; crystal violet and MTT assays, LNCaP cells, CRPC cells, Enzalutamide resistant cells) was “had anti-proliferative effects” and the “castration-resistant LNCaP growth and enzalutamide-resistant cell growth in vitro” value ([11]; summary of the data) was “suppresses castration-resistant LNCaP growth as well as enzalutamide-resistant cell growth”. For the same compound, the “AR and PSA protein expression levels” value ([4]; Enzalutamide resistant cell line) was “still observed in resistant cells” and the “AR and PSA protein expression levels” value ([4]; LNCaP cells) was “induced a greater reduction in AR and prostate-specific antigen (PSA) protein expression”.
